Laboratory results taken from patent US12402610B2, “Methods and compositions for modulating innate lymphoid cell pathogenic effectors” (The Broad Institute, Inc., priority 2018, dated 2025).
“Also recorded” adds a separate entry of the source.

Key:
skin ILCs [1] = experiment: Alternative psoriasis model using topical imiquimod in IL-5 fate / IL-22 BFP / IL-17A GFP reporter mouse; assay type: in vivo
ear skin = experiment: IL-23 subcutaneous injection psoriasis model, skin thickness measured with calipers; assay type: in vivo, mouse
Text: (§1) To determine which cells are key to initiate psoriatic disease, Applicants studied a subcutaneous IL-23 injection model, which leads to increased skin thickness after five days of daily injections (FIG. 1a, FIG. 5a). First, Applicants assessed the role of different immune cell types in this model (FIG. 1b, FIG. 5b,c). […] This is also consistent with an increased number of human ILC3s recently observed in psoriatic patients^3,4. Moreover, while γδ T cells have been implicated in a longer treatment course^2,5, analyzing Tcrd^−/− mice, which lack only γδ T cells, Applicants found no evidence that they contribute to disease initiation (FIG. 1b). […] Applicants compared disease phenotype between control mice and those treated with FTY720, which blocks signaling from the S1P1 receptor, preventing egress of T cells from secondary lymphoid tissues and limiting trafficking of induced ILC2s^7,11. […] Thus, in contrast to a model of lung inflammation, in psoriasis, tissue-resident ILCs are sufficient to drive disease pathology and are critical for amplifying the response to IL-23.
(§2) Psoriasis model. The psoriasis model used in this study is based on rIL-23 subcutaneous injections. The 500 ng in 20 μl of rIL-23 (provided by Abbvie or purchased from R&D Systems [scRNAseq experiments]) was injected daily into the ear skin of anesthetized mice in 4 consecutive days. As a control 20 μl of PBS was used with the same injection intervals. For the second challenge experiment, Applicants waited 10 days, monitoring the skin thickness before repeating 4-day injection regimen. Skin thickness was measured daily with calipers. When indicated, FTY720 (1 mg/kg) was dissolved in PBS and administered i.p on day −1, 1 and 3 of the experiment. Skin tissue was collected on day 5 for histology imaging, flow cytometry analysis or cell sorting.

[2] = tested on: circulating total white blood cells; experiment: Total circulatory white blood cell numbers after FTY720 treatment; assay type: in vivo, mouse; conditions: FTY720 1 mg/kg i.p., WT and Rag1−/− mice, vs untreated
Text: as §1
Psoriasis model. The psoriasis model used in this study is based on rIL-23 subcutaneous injections. […] Skin thickness was measured daily with calipers. […]

skin ILCs [3] = experiment: IL-5 fate mapping with IL-17A GFP and IL-22 BFP reporters after IL-23 injection; assay type: in vivo, mouse
Text: (§3) Next, Applicants tested the prediction of a transition during disease of IL-5-expressing ILC2s into IL-22/IL-17A-expressing ILC3-like cells. Applicants generated an IL-5 fate reporter mouse from IL-5-cre-dTomato (Red5)^50 and Rosa26^flox-Stop-floxYFP, which Applicants then combined with IL-17A^GFP 51 and IL-22^BFP expression reporters (FIG. 4b). […] Moreover, cells that expressed ILC3 type cytokines no longer expressed IL-5 (FIG. 4d). […] Finally, Applicants also tested the model's prediction that there is a subset of skin ILCs in the psoriasis model that co-expresses the type 2 cytokine IL-13 with both of the type 3 cytokines IL-22 and IL-17A.
Mice. C57BL/6, Tcrd^−/− and Rosa26^flox-stop-floxYFP Ai3(RCL-EYFP) mice were purchased from the Jackson Laboratories. Rag1^−/− and Rag2^−/−IL2rg^−/− were purchased from Taconic Biosciences. IL-5 Cre, dTomato (Red5/R5) from Dr Locksley laboratory. The IL-5 fate reporter in this work was generated by crossing Red5 with Ai3(RCL-EYFP) with IL-17A^GFP 51 and IL-22^BFP generated in Applicants laboratory. In order to maximize the Cre recombination and increase the signal of Rosa26^YFP positive cells, Applicants used homozygous IL-5^dTomato, Cre. Applicants observed little to no difference in IL-23 induced skin thicknening (FIG. 8a).
Psoriasis model. […] Skin thickness was measured daily with calipers. […]

skin ILCs [4] = experiment: Intracellular cytokine staining of skin ILCs after IL-23 treatment; assay type: in vivo, mouse
Text: as §3
as §2, with “sorting. […]” for “sorting.”

## CC(C)Cn1cnc2c(N)nc3ccccc3c21 [imiquimod]
Skin ILCs [1]; topically treated over 10 days
  IL-22 production, compared with IL-23 injection model: less induced
Skin ILCs [1]; topically treated over 10 days vs untreated mice
  IL-17A producing cells including exIL-5 cells: increase

## CCCCCCCCc1ccc(CCC(N)(CO)CO)cc1 [FTY720, reference compound]
Ear skin; FTY720-treated vs untreated controls, WT or Rag1−/− mice
  psoriasis phenotype induction upon IL-23 administration (skin thickness): no difference
Ear skin; FTY720 during the primary injection
  increased susceptibility to a secondary challenge with IL-23 (skin thickness): does not impact; also recorded: also observed
[2]
  circulating total white blood cells: blocks; also recorded: reduction

## IL-23: recombinant cytokine injected subcutaneously into ear skin to induce the psoriasis model
Ear skin; Rag1−/− mice (intact ILCs)
  increase in skin thickness over the treatment course: significant increase
Ear skin; Rag2−/− Il2rg−/− double mutant (lacks all lymphocytes)
  increase in ear thickness: did not show any increase
Ear skin; Rag2−/− Il2rg−/− mice with adoptively transferred sorted skin ILCs
  skin thickening, treated versus untreated recipient mice: significant skin thickening
Ear skin; WT mice, daily subcutaneous injections, vs PBS vehicle
  skin thickness: significantly higher; also recorded: increased
Ear skin; after the initial injection
  time for inflammation and skin thickness to revert to near-baseline levels: ≤ 10 days
Ear skin; second challenge
  phenotype after a second series of injections compared to initial response: significantly more severe
Skin ILCs [3]; after IL-23 injection, fate mapping of ILC2s
  IL-22- and IL-17A-expressing cells that were ex-IL-5 producing cells: ~10%
Skin ILCs [3]; second IL-23 challenge
  number of ex-IL-5 cells producing IL-22 and IL-17A: further elevated
Skin ILCs [4]; Rag1−/− mice
  cells expressing IL-22 and IL-17A that also co-express IL-13: ~20%
Skin ILCs [4]; WT and Tcrd−/− mice
  cells expressing IL-22 and IL-17A that also co-express IL-13: ~10%
